Consider three molecules from US6458846B1, “Ion channel modulating agents” (Neurosearch A/S, priority 1998, dated 2002).

For orientation: melting point means the temperature, or range, at which the solid turns liquid.

Each structure is given as a SMILES string. Counter-ions that a name gives are not always drawn.

With `CC(=O)c1ccccc1NC(C)=NO` [Compound 1i, N-(2-acetylphenyl)acetamide oxime], the melting point was in the range of 99 to 100 °C.

`ON=Cc1ccc(Cl)c(Cl)c1OCc1ccccc1` (as salt: HCl) [Compound 1e, O-Benzyl 2-formyl-5,6-dichlorophenol oxime] had a melting point of 64 to 69 °C.

For `COc1c(C=NO)ccc(Cl)c1Cl` (as salt: HCl) [Compound 1f, O-Methyl 2-formyl-5,6-dichlorophenol oxime], the melting point fell in the range of 82 to 83 °C.
